# Data: ChEMBL document CHEMBL1201862, “PubChem BioAssay data set” (2004)
# “And” between values parts separate entries of the source, which are not always exact repeats. Equal values may be shown once. The source made the active and inactive calls.
# Key:
# [1] = target: T1, Heat shock factor protein 1 (Mus musculus, UniProt P38532); experiment: HSF1 potentiators in luciferase reporter cells, confirmation, cell-based, NIH3T3, luminescence, dose retest (AID 435004); format: functional;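 also: stress induced by proteasome inhibitor MG132 added 30 min after compound; luciferase reporter driven by HSF1 response element in NIH3T3 cells; actives raise luminescence as potentiators of the MG132 stress response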
# T1 sequence (P38532 whole entry): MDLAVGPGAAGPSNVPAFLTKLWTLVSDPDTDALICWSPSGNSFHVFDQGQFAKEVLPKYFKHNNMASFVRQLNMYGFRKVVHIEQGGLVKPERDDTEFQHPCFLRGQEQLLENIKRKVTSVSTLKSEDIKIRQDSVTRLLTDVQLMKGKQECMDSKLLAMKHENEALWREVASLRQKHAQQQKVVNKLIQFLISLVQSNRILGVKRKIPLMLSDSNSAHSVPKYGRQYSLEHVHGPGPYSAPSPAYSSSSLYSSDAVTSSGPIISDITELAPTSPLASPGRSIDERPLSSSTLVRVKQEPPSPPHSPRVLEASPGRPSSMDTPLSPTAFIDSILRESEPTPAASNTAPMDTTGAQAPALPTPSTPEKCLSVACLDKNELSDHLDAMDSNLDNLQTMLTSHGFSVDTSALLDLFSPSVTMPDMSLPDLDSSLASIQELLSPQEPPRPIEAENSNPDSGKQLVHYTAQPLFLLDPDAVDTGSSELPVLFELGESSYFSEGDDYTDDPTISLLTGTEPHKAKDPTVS
# Cytochrome P450 2D6 = Cytochrome P450 2D6 (Homo sapiens, UniProt P10635);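 also: CYP2D6 member of a cytochrome P450 panel assay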
# [2] = Luminescence Cell-Based Dose Response HTS to Identify Inhibitors of 5'UTR Stem-Loop Driven Prion Protein mRNA Translation in H4 Neuroglioblastoma Cells. [Related pubchem assays: 1827 (Project Summary), 1813 (Primary HTS)]; format: functional
# [3] = inhibitors of firefly luciferase expression or activity, dose response, H4 neuroglioma cells, luminescence (AID 1990); format: functional, cell-based
# [4] = inhibitors of SNCA 5'UTR-driven reporter translation, confirmation, H4 neuroglioma cells, luminescence (AID 1988); format: functional, cell-based
# Cytochrome P450 2C9 = Cytochrome P450 2C9 (Homo sapiens, UniProt P11712)
# [5] = HEp-2 cell cytotoxicity, dose response, cytotoxicity control for RSV inhibitor project, HTS (AID 2410); format: functional; conditions: human respiratory syncytial virus
# [6] = target: T1, Heat shock factor protein 1; experiment: inhibition of MG132-induced HSE-luciferase signal, confirmation, cell-based, NIH3T3, luminescence, dose retest (AID 2382); format: functional;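 also: NIH3T3 fibroblasts with HSF1-driven luciferase reporter stressed by proteasome inhibitor MG132; luminescence from HSF1-driven luciferase expression after 8 hours of MG132 stress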
# Cytochrome P450 3A4 = Cytochrome P450 3A4 (Homo sapiens, UniProt P08684);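 also: CYP3A4 tested as one member of a cytochrome P450 panel screen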
# Streptokinase A = target: T2, Streptokinase A (Streptococcus pyogenes serotype M1, UniProt P10520); experiment: S. pyogenes streptokinase expression inhibitors, potency, dose response, plasminogen activation absorbance, OD405 (AID 1914); format: functional, Streptococcus pyogenes M1 GAS;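 also: secreted streptokinase activity via plasminogen activation per viability signal from cell pellet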
# T2 sequence (P10520 whole entry): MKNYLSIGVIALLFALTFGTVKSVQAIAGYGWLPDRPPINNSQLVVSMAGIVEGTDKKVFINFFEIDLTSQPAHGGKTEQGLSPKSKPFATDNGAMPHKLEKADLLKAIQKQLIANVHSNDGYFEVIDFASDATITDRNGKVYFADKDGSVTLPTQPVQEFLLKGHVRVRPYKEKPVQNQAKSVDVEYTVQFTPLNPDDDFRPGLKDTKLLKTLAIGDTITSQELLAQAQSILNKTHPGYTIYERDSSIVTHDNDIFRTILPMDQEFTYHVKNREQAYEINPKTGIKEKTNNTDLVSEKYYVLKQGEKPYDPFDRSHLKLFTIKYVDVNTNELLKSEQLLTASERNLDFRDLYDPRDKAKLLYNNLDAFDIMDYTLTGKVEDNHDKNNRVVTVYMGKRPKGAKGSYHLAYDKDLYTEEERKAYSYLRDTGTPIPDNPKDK
# [7] = tested on: Streptococcus sp. 'group A'; experiment: growth inhibition of control SK(-) GAS strain, dose response, counter-screen for streptokinase expression inhibitor project, luminescence, kanamycin, BacTiterGlo, confirmation (AID 1900); format: functional, organism-based
# Streptococcus = experiment: Group A Streptococcus viability loss, dose response, counter-screen for streptokinase expression inhibitor project, luminescence, BacTiterGlo (AID 1915); format: functional, organism-based;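 also: potency for reduction of bacterial viability or growth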
# Cytochrome P450 2C19 = Cytochrome P450 2C19 (Homo sapiens, UniProt P33261); experiment: Cytochrome panel assay with activity outcomes. Panel member name: p450-cyp2c19 Compounds with AC50 equal or less than 10 uM are considered active; format: functional; conditions: read-out: AC50
# H9c2 = experiment: cells; format: functional, cell-based; conditions: Rattus norvegicus, H9c2, Myocardium;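 also: confirmatory concentration-response retest of ultra-high-throughput screening hits for modulation of myocardial damage; cell death induced by hydrogen peroxide oxidative stress; compound pretreatment for 60 min then peroxide exposure for 2 h; potency is for protecting the cells against peroxide damage rather than for killing them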
# [8] = cytotoxicity toward NIH3T3 fibroblasts, dose response, counter-screen, cell-based, ATP luminescence, mouse fibroblasts (AID 2010); format: functional;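 also: cells exposed to compound for about 90 hours before reading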
# [9] = inhibitors of intracellular T. cruzi replication, confirmation, NIH3T3 host cells, beta-gal luminescence (AID 2044); format: functional, cell-based;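 also: intracellular parasites grown in NIH/3T3 mouse fibroblasts as host cells; luminescent beta-galactosidase reporter signal from transgenic T. cruzi replicating inside host cells; inhibitors lower the luminescence signal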
# INS1 = experiment: beta cell apoptosis inhibitors, cytokine rescue, dose response, luminescence, retest (AID 449756); format: functional, cell-based; conditions: Rattus norvegicus;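 also: cell death triggered by IL-1 beta plus TNF-alpha plus IFN-gamma mixture; protective hits raise ATP signal compared with cytokine alone wells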
# Sequence of Cytochrome P450 3A4 (P08684 whole entry): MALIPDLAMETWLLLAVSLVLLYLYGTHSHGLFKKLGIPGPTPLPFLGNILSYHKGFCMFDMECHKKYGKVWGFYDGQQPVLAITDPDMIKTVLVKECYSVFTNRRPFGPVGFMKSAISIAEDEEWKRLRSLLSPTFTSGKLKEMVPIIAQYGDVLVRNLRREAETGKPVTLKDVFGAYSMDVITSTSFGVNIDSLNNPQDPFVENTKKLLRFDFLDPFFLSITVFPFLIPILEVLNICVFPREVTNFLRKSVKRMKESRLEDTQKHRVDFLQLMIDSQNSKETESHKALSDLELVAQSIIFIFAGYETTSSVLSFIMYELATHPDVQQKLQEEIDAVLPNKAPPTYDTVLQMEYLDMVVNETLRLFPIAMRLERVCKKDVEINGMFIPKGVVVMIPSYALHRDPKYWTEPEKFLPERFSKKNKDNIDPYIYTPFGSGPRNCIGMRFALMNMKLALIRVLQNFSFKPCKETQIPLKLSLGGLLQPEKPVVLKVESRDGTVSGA
# Sequence of Cytochrome P450 2C19 (P33261 whole entry): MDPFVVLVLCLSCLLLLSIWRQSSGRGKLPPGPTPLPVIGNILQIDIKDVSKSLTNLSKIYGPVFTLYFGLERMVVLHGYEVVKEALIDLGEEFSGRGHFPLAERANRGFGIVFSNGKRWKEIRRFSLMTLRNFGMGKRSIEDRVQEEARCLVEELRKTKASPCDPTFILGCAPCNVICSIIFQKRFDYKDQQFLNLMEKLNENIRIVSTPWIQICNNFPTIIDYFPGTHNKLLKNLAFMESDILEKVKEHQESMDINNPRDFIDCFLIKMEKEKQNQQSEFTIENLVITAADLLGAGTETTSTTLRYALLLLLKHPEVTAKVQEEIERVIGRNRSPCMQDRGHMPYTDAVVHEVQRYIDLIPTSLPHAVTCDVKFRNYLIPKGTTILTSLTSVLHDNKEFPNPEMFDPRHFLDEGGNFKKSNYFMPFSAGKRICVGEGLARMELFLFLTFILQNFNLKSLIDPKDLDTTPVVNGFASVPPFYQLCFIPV
# Sequence of Cytochrome P450 2C9 (P11712 whole entry): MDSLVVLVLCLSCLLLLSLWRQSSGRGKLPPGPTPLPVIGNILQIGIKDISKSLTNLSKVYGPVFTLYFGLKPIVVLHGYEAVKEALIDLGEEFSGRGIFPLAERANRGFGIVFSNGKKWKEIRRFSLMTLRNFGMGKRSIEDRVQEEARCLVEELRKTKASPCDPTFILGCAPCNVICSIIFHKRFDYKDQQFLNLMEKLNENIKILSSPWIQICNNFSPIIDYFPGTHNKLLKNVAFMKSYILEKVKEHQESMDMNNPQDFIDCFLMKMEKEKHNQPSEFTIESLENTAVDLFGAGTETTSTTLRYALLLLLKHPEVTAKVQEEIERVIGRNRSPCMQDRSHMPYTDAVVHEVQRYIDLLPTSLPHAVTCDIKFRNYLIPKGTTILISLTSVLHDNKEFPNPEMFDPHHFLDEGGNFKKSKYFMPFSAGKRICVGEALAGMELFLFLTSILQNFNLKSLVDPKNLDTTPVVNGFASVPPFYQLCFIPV
# Sequence of Cytochrome P450 2D6 (P10635 whole entry): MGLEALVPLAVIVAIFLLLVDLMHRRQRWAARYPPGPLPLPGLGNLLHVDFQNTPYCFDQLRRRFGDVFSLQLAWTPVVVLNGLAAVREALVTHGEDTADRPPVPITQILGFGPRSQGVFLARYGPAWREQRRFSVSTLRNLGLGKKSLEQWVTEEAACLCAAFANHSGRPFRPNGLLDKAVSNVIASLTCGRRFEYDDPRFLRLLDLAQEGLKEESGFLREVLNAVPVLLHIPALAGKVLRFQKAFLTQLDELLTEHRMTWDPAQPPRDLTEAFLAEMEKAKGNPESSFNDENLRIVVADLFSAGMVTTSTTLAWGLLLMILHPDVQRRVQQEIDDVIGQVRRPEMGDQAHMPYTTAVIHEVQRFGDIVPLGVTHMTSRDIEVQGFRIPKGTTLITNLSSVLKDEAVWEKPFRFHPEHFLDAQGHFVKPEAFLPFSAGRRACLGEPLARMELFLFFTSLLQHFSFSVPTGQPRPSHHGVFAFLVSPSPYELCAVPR
smiles,measurement,setting,value
Cc1cc(/C=C(/C#N)c2cccc(Cl)c2)c(C)n1C,EC50,[1],> 260 µM (inactive)
Cc1ccc(OCC(=O)N2CCN(c3ccc([N+](=O)[O-])c(N4CCOCC4)c3)CC2)cc1,AC50,Cytochrome P450 2D6,12.6 µM (inconclusive)
COc1ccc(NC(=O)C(=O)NCC(c2ccco2)N2CCc3ccccc32)cc1 (stereo not drawn),EC50,[2],0.127 µM (active)
same,EC50,[3],104 µM (active)
same,EC50,[4],0.11 µM (active)
CCCC[C@@H]1C[C@H]1C(NC(=O)Cc1ccccc1)c1ccc(Cl)cc1 (stereo partly drawn),AC50,Cytochrome P450 2C9,1.26 µM (inconclusive)
same,AC50,Cytochrome P450 2D6,7.94 µM (inconclusive)
Cc1c(C)c2ccc(OS(C)(=O)=O)c(C)c2oc1=O,CC50,[5],> 50 µM (active)
CCCCNCCOCCOc1ccccc1-c1ccccc1,EC50,[6],> 195 µM (not active)
CC(C)[C@H](N)c1nnc(SC/C=C/c2ccccc2)o1,AC50,Cytochrome P450 2C9,0.0562 µM (inconclusive)
same,AC50,Cytochrome P450 2D6,35.5 µM (inconclusive)
NCCNS(=O)(=O)c1ccc(N)cc1,AC50,Cytochrome P450 3A4,5.01 µM (inconclusive)
COc1cccc(Nc2nc(N)nc(C(F)(F)F)n2)c1,CC50,[5],20.4 µM (active)
O=[N+]([O-])c1cc([N+](=O)[O-])c(N2CCOCC2)cc1NCc1ccccc1,EC50,[1],> 260 µM (inactive)
CC(=O)Nc1nc(NC(=O)/C=C/c2ccccc2)n(-c2ccccc2)n1,EC50,Streptokinase A,> 150 µM (not active)
same,EC50,[7],2.47 µM (active)
same,EC50,[2],13.7 µM (active)
same,EC50,Streptococcus,33.9 µM (active)
same,EC50,[3],14.2 µM (active)
same,EC50,[4],15.7 µM (active)
COc1cccc(NC(=O)CCSc2nnc3scc(-c4ccccc4)n23)c1,EC50,[6],> 195 µM (not active)
CN(C)c1ccc(/N=N\c2cccc3ccoc23)cc1,AC50,Cytochrome P450 2D6,3.16 µM (inconclusive)
same,AC50,Cytochrome P450 3A4,3.98 µM (inconclusive)
Cc1cccc(OCCCC(=O)Nc2ccc(N3CCCCC3)cc2)c1,AC50,Cytochrome P450 2C19,0.355 µM (inconclusive)
same,AC50,Cytochrome P450 3A4,7.08 µM (inconclusive)
Cc1noc(C)c1C(=O)N1CCC2(CCCN(c3ccncc3)C2)CC1,AC50,Cytochrome P450 3A4,31.6 µM (inconclusive)
Nc1nc(SC/C=C\c2ccccc2)c2nc[nH]c2n1,AC50,Cytochrome P450 2C9,3.98 µM (inconclusive)
same,AC50,Cytochrome P450 2D6,3.16 µM (inconclusive)
O=C(CSc1nc(O)c2ccccc2n1)N1CCCCC1,IC50,H9c2,10.5 µM (active)
COc1ccc(NC(=O)CSc2nc(N)c3cc4c(nc3n2)CCCC4)cc1,EC50,[1],53.3 µM (active)
O=C(Nc1cccc2ccccc12)C12CC3CC(C1)CC(n1cnc([N+](=O)[O-])n1)(C3)C2,EC50,[2],12.4 µM (active)
same,EC50,[3],12.9 µM (active)
same,EC50,[4],> 60 µM (not active)
ON=C1c2ccccc2-c2ccccc21,EC50,[1],> 260 µM (inactive)
COc1ccc(C(C)(C)C)cc1NC(=O)c1cncc(Br)c1,AC50,Cytochrome P450 2C19,10 µM (inconclusive)
same,AC50,Cytochrome P450 3A4,11.2 µM (inconclusive)
C1=C(c2ccccc2)CCN(c2nc3ccccc3n3cnnc23)C1,IC50,H9c2,> 79 µM (inactive)
Cc1cc(N2CCN(C)CC2)ccc1NC(=O)c1cccc(S(=O)(=O)N2CCc3ccccc3C2)c1,EC50,[8],8.5 µM (active)
same,EC50,[9],1.43 µM (active)
same,EC50,[2],> 120 µM (not active)
same,EC50,[3],9.2 µM (active)
same,EC50,[4],> 120 µM (not active)
O=C(CSc1nnc(-c2ccccc2)c(-c2ccccc2)n1)N1CCc2ccccc21,EC50,[1],> 260 µM (inactive)
O=C(CN(Cc1ccco1)Cc1ccco1)Nc1cc(S(=O)(=O)N2CCCCC2)ccc1Cl,AC50,INS1,7.48 µM (active)
C=C(C)CN1CC[C@@]23c4c5ccc(O)c4O[C@H]2c2[nH]c4ccccc4c2C[C@]3(O)[C@@H]1C5,AC50,Cytochrome P450 2C19,3.16 µM (inconclusive)
same,AC50,Cytochrome P450 3A4,31.6 µM (inconclusive)
CO[C@H]1COC(=O)[C@H](C)COC(=O)[C@@H](Cc2ccccc2)NC(=O)C/C=C\[C@H]1C,AC50,Cytochrome P450 3A4,6.31 µM (inconclusive)
CSc1ccccc1C(=O)N1CCN(c2ncccn2)CC1,EC50,[6],> 195 µM (not active)
O=S(=O)(c1ccccc1)N1CCCC(c2nc(O)c3nnn(Cc4ccc5c(c4)OCCO5)c3n2)C1 (stereo not drawn),CC50,[5],16.9 µM (active)
CCCCCSc1nc2c(c(=O)[nH]c(=O)n2C)n1C(C)C,EC50,[2],16.5 µM (active)
same,EC50,[3],> 120 µM (not active)
same,EC50,[4],12.5 µM (active)
COc1ccc(CNC(=O)COc2cc3c(c4oc(=O)cc(C)c24)CCC(C)(C)O3)cc1OC,CC50,[5],> 50 µM (active)
Cc1cnc(CNc2ccnc(-c3ccccc3Cl)n2)cn1,AC50,Cytochrome P450 2C19,39.8 µM (inconclusive)
same,AC50,Cytochrome P450 3A4,10 µM (inconclusive)
CCCC[C@@H]1C[C@H]1C(NC(=O)c1cccnc1)c1ccc(Cl)cc1 (stereo partly drawn),AC50,Cytochrome P450 2D6,25.1 µM (inconclusive)
Cc1cccc(OC2CCN(Cc3nc(CC4CC4)no3)CC2)c1,EC50,[2],> 120 µM (not active)
same,EC50,[3],> 120 µM (not active)
same,EC50,[4],55.7 µM (active)
COc1ccc(-c2nc3cnc(N(C)C)nc3n(Cc3cccs3)c2=O)cc1,AC50,Cytochrome P450 3A4,12.6 µM (inconclusive)
CC(C)c1nc2oc3c(NCc4ccccn4)ncnc3c2c2c1COC(C)(C)C2,EC50,[2],> 120 µM (not active)
same,EC50,[3],33 µM (active)
same,EC50,[4],16.7 µM (active)
NN=C(S)Nc1ccc(OC(F)(F)F)cc1,AC50,INS1,> 260 µM (inactive)
COc1ccc(C2C(C#N)=C(N)N(c3ccccc3)C3=C2C(=O)CCC3)cc1Cn1cc([N+](=O)[O-])cn1 (stereo not drawn),EC50,[2],17.1 µM (active)
same,EC50,[3],13.2 µM (active)
same,EC50,[4],105 µM (active)
COC(=O)C(c1ccccc1)C1(O)CC(C)N(C)CC1C (stereo not drawn),EC50,[6],> 195 µM (not active)
CC(C)N(Cc1ccccc1)C(=O)COC(=O)/C=C/c1cnc2ccccc2n1,EC50,[1],23 µM (active)
Oc1cc(O)cc(/C=C\c2ccc(O)c(O)c2)c1,AC50,Cytochrome P450 2C9,31.6 µM (inconclusive)
same,AC50,Cytochrome P450 3A4,20 µM (inconclusive)
CC(C)(C)C(=O)NC(Nc1cccc2cccnc12)C(Cl)(Cl)Cl (stereo not drawn),AC50,INS1,23.6 µM (active)
same,AC50,Cytochrome P450 2D6,15.8 µM (inconclusive)
same,AC50,Cytochrome P450 3A4,7.08 µM (inconclusive)
c1ccc2c(c1)nnn1c3ccccc3nc21,EC50,[1],> 260 µM (inactive)
CN1CCN(c2ccc([N+](=O)[O-])cc2NC(=O)c2ccccc2Cl)CC1,AC50,Cytochrome P450 2D6,17.8 µM (inconclusive)
Cc1cc(=O)oc2c(C)c(OC(C)C(=O)NCC(O)c3ccccc3)ccc12 (stereo not drawn),EC50,[1],> 260 µM (inactive)
O=C(CN1C(=O)/C(=C\c2cccc(Cl)c2)Sc2ccccc21)NCCCN1CCOCC1,EC50,[1],245 µM (active)
CCN(CC)S(=O)(=O)c1ccc(C(=O)NN(C)C2=NS(=O)(=O)c3ccccc32)cc1,EC50,[1],> 260 µM (inactive)
CCC(CO)NCC#Cc1ccccc1 (stereo not drawn),EC50,[1],> 260 µM (inactive)
Cc1cccc(N(NC(=O)C(C)(C)O)C(=O)c2ccccc2)c1,AC50,Cytochrome P450 2C9,39.8 µM (inconclusive)
same,AC50,Cytochrome P450 3A4,17.8 µM (inconclusive)
CCOc1cc(/C=N/NC(=O)c2cc(-c3ccccc3)nc3ccccc23)ccc1O,CC50,[5],31.8 µM (active)
C/C(=N\NC(=O)c1nnn(-c2nonc2N)c1C(C)C)c1cc(C)sc1C,CC50,[5],> 50 µM (active)
NC[C@@H]1O[C@H](C23CC4CC(CC(C4)C2)C3)Cc2c1ccc(O)c2O,AC50,Cytochrome P450 3A4,20 µM (inconclusive) and 31.6 µM (inconclusive)
COc1cc(/C=N/NC(=O)c2cccnc2)ccc1OC(=O)c1cc(OC)c(OC)c(OC)c1,AC50,INS1,1.1 µM (active)
Cc1cccc(N/N=C(\C=O)C(=O)c2ccc(Br)cc2)c1,EC50,[1],> 260 µM (inactive)
c1ccc2oc(C3=NCCN3)cc2c1,AC50,Cytochrome P450 2D6,39.8 µM (inconclusive)
